Measured values published in PubChem BioAssay AID328 (DTP/NCI, 2004).
Where “and” joins values, the source holds several entries; their conditions need not be identical. Equal values may be shown once. Toxic doses and inconclusive results are not listed.

Tested on: BDF1 mice, P388 leukemia ip, median survival T/C
Test: NCI In Vivo Anticancer Drug Screen. Data for tumor model P388 Leukemia (intraperitoneal) in B6D2F1 (BDF1) mice
Details: endpoint: median survival time, higher = longer survival
Method in brief: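 In tumour-bearing mice, survival after compound treatment is set against the vehicle group and given as a quotient.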

[1] = dose: 100.0 mg/kg/injection, schedule: Q01DX009 (ip), vehicle: Klucel (hydroxypropylcellulose) (HPC)
[2] = dose: 100.0 mg/kg/injection, schedule: Q04DX003 (ip), vehicle: Klucel (hydroxypropylcellulose) (HPC)
[3] = dose: 200.0 mg/kg/injection, schedule: Q01DX009 (ip), vehicle: Klucel (hydroxypropylcellulose) (HPC)
[4] = dose: 200.0 mg/kg/injection, schedule: Q04DX003 (ip), vehicle: Klucel (hydroxypropylcellulose) (HPC)
[5] = dose: 400.0 mg/kg/injection, schedule: Q04DX003 (ip), vehicle: Klucel (hydroxypropylcellulose) (HPC)
[6] = dose: 50.0 mg/kg/injection, schedule: Q01DX009 (ip), vehicle: saline with Tween-80
[7] = dose: 6.25 mg/kg/injection, schedule: Q01DX009 (ip), vehicle: saline
[8] = dose: 12.5 mg/kg/injection, schedule: Q01DX009 (ip), vehicle: saline
[9] = dose: 200.0 mg/kg/injection, schedule: Q04DX003 (ip), vehicle: saline
[10] = dose: 400.0 mg/kg/injection, schedule: Q04DX003 (ip), vehicle: saline

SMILES: N#CCc1cnc2nc(N)nc(N)c2n1
- T/C (dose: 3.13 mg/kg/injection, schedule: Q01DX009 (ip), vehicle: other): 102 % of control
- T/C (dose: 6.25 mg/kg/injection, schedule: Q01DX009 (ip), vehicle: other): 98 % of control
- T/C (dose: 12.5 mg/kg/injection, schedule: Q01DX009 (ip), vehicle: other): 107 % of control
- T/C (dose: 25.0 mg/kg/injection, schedule: Q01DX009 (ip), vehicle: other): 107 % of control

SMILES: Cc1c2oc3c(C)ccc(C(=O)NCc4ccccc4)c3nc-2c(C(=O)NCc2ccccc2)c(N)c1=O
- T/C (dose: 100.0 mg/kg/injection, schedule: Q04DX002 (sc), vehicle: olive oil, sesame oil, peanut oil): 99 % of control
- T/C (dose: 200.0 mg/kg/injection, schedule: Q04DX002 (sc), vehicle: olive oil, sesame oil, peanut oil): 98 % of control
- T/C (dose: 400.0 mg/kg/injection, schedule: Q04DX002 (sc), vehicle: olive oil, sesame oil, peanut oil): 101 % of control

SMILES: Cc1ccc(C2(C(=O)O)CCCCC2)cc1
- T/C [1]: 100 % of control
- T/C [2]: 109 % of control
- T/C [3]: 92 % of control
- T/C [4]: 104 % of control
- T/C [5]: 100 % of control

SMILES: O=[N+]([O-])c1ccc(O)c(C2N(Cc3ccc(N(CCCl)CCCl)cc3)CCCN2Cc2ccc(N(CCCl)CCCl)cc2)c1
- T/C (dose: 12.5 mg/kg/injection, schedule: Q01DX010 (ip), vehicle: carboxymethylcellulose (CMC)): 120 % of control
- T/C (dose: 25.0 mg/kg/injection, schedule: Q01DX010 (ip), vehicle: carboxymethylcellulose (CMC)): 120 % of control
- T/C (dose: 100.0 mg/kg/injection, schedule: Q01DX010 (ip), vehicle: carboxymethylcellulose (CMC)): 165 % of control

SMILES: Cc1ccc(S(=O)(=O)N2CC3CC2CN3Cc2ccccc2)cc1 (stereo unspecified)
- T/C [1]: 109 % of control
- T/C [2]: 104 % of control
- T/C [3]: 104 % of control
- T/C [4]: 100 % of control
- T/C (dose: 400.0 mg/kg/injection, schedule: Q01DX009 (ip), vehicle: Klucel (hydroxypropylcellulose) (HPC)): 100 % of control
- T/C [5]: 95 % of control

SMILES: O=C(Nc1nnc(C(F)(F)F)s1)c1c(F)cccc1F
- T/C [6]: 92 % of control

SMILES: OC1CCCC2CCC[N-]C12.OC1CCCC2CCC[N-]C12.[O]=[V][OH] (stereo unspecified)
- T/C (dose: 3.12 mg/kg/injection, schedule: Q01DX009 (ip), vehicle: Klucel (hydroxypropylcellulose) (HPC)): 100 % of control
- T/C (dose: 6.25 mg/kg/injection, schedule: Q01DX009 (ip), vehicle: Klucel (hydroxypropylcellulose) (HPC)): 95 % of control
- T/C [7]: 110 % of control
- T/C (dose: 12.5 mg/kg/injection, schedule: Q01DX009 (ip), vehicle: Klucel (hydroxypropylcellulose) (HPC)): 100 % of control
- T/C [8]: 150 % of control
- T/C (dose: 25.0 mg/kg/injection, schedule: Q01DX009 (ip), vehicle: Klucel (hydroxypropylcellulose) (HPC)): 100 % of control

SMILES: CCCCC(=O)OCC(=O)[C@]1(O)Cc2c(O)c3c(c(O)c2[C@@H](OC2CC(NC(=O)C(F)(F)F)C(O)C(C)O2)C1)C(=O)c1c(OC)cccc1C3=O (stereo partly specified)
- T/C (dose: 5.0 mg/kg/injection, schedule: Q01DX004 (ip), vehicle: other): 162 % of control
- T/C (dose: 10.0 mg/kg/injection, schedule: Q01DX004 (ip), vehicle: other): 155 % of control and 189 % of control
- T/C (dose: 13.0 mg/kg/injection, schedule: Q01DX004 (ip), vehicle: saline with Tween-80): 203 % of control
- T/C (dose: 20.0 mg/kg/injection, schedule: Q01DX004 (ip), vehicle: other): 288 % of control and 187 % of control
- T/C (dose: 21.0 mg/kg/injection, schedule: Q01DX004 (ip), vehicle: saline with Tween-80): 221 % of control
- T/C (dose: 21.6 mg/kg/injection, schedule: Q01DX004 (ip), vehicle: saline with Tween-80): 221 % of control
- T/C (dose: 25.2 mg/kg/injection, schedule: Q04DX003 (ip), vehicle: other): 175 % of control
- T/C (dose: 30.0 mg/kg/injection, schedule: Q01DX004 (ip), vehicle: other): 263 % of control and 351 % of control
- T/C (dose: 36.0 mg/kg/injection, schedule: Q01DX004 (ip), vehicle: saline with Tween-80): 353 % of control
- T/C (dose: 40.0 mg/kg/injection, schedule: Q01DX004 (ip), vehicle: other): 98 % of control
- T/C (dose: 42.0 mg/kg/injection, schedule: Q04DX003 (ip), vehicle: other): 262 % of control
- T/C (dose: 50.0 mg/kg/injection, schedule: Q01DX004 (ip), vehicle: other): 86 % of control
- T/C (dose: 70.0 mg/kg/injection, schedule: Q04DX003 (ip), vehicle: other): 506 % of control

SMILES: COc1cc2cc(c1Cl)N(C)C(=O)C[C@H](OC(=O)[C@H](C)N(C)C(=O)CC(C)C)[C@]1(C)O[C@H]1[C@H](C)[C@@H]1C[C@@](O)(NC(=O)O1)[C@H](OC)C=C/C=C(\C)C2
- T/C (dose: 0.1 micrograms/kg/injection, schedule: Q01DX009 (ip), vehicle: saline + alcohol): 120 % of control
- T/C (dose: 0.4 micrograms/kg/injection, schedule: Q01DX009 (ip), vehicle: saline + alcohol): 174 % of control
- T/C (dose: 0.8 micrograms/kg/injection, schedule: Q01DX009 (ip), vehicle: saline + alcohol): 158 % of control
- T/C (dose: 1.6 micrograms/kg/injection, schedule: Q01DX009 (ip), vehicle: saline + alcohol): 154 % of control
- T/C (dose: 3.1 micrograms/kg/injection, schedule: Q01DX009 (ip), vehicle: saline + alcohol): 158 % of control and 165 % of control
- T/C (dose: 6.2 micrograms/kg/injection, schedule: Q01DX009 (ip), vehicle: saline + alcohol): 154 % of control and 201 % of control
- T/C (dose: 12.5 micrograms/kg/injection, schedule: Q01DX009 (ip), vehicle: saline + alcohol): 177 % of control and 187 % of control
- T/C (dose: 25.0 micrograms/kg/injection, schedule: Q01DX009 (ip), vehicle: saline + alcohol): 116 % of control

SMILES: C=C1C(=O)OC2CC(C)C3(O)CCC(C)(CC(OC(=O)C(C)C)C12)O3 (stereo unspecified)
- T/C (dose: 40.0 mg/kg/injection, schedule: Q01DX009 (ip), vehicle: saline): 100 % of control
- T/C (dose: 50.0 mg/kg/injection, schedule: Q01DX009 (ip), vehicle: Klucel (hydroxypropylcellulose) (HPC)): 117 % of control
- T/C [1]: 117 % of control and 118 % of control

SMILES: c1ccc([P+](CCN2Cc3ccccc3C2)(c2ccccc2)c2ccccc2)cc1
- T/C (dose: 3.13 mg/kg/injection, schedule: Q01DX009 (ip), vehicle: saline): 99 % of control
- T/C [7]: 114 % of control
- T/C [8]: 105 % of control

SMILES: CC(C)(C)SC(=O)C[Si](C)(C)C
- T/C (dose: 100.0 mg/kg/injection, schedule: Q04DX003 (ip), vehicle: saline with Tween-80): 113 % of control
- T/C (dose: 200.0 mg/kg/injection, schedule: Q04DX003 (ip), vehicle: saline with Tween-80): 123 % of control

SMILES: NC(=O)NC(c1ccccc1)C(NC(N)=O)c1ccccc1 (stereo unspecified)
- T/C [6]: 110 % of control
- T/C (dose: 100.0 mg/kg/injection, schedule: Q01DX009 (ip), vehicle: saline with Tween-80): 104 % of control
- T/C (dose: 200.0 mg/kg/injection, schedule: Q01DX009 (ip), vehicle: saline with Tween-80): 91 % of control

SMILES: O=C(O)C(=O)O.OO.OO.OO.[Nb]
- T/C (dose: 200.0 mg/kg/injection, schedule: Q01DX009 (ip), vehicle: saline): 86 % of control

SMILES: Cc1cc(NCCCCCCNc2cc(C)nc3ccc(N)cc23)c2cc(N)ccc2n1
- T/C (dose: 37.5 mg/kg/injection, schedule: Q04DX003 (ip), vehicle: saline): 163 % of control
- T/C (dose: 75.0 mg/kg/injection, schedule: Q04DX003 (ip), vehicle: saline): 159 % of control
- T/C (dose: 150.0 mg/kg/injection, schedule: Q04DX003 (ip), vehicle: saline): 218 % of control
- T/C (dose: 198.0 mg/kg/injection, schedule: Q04DX003 (ip), vehicle: Klucel (hydroxypropylcellulose) (HPC)): 213 % of control
- T/C [9]: 210 % of control
- T/C (dose: 300.0 mg/kg/injection, schedule: Q04DX003 (ip), vehicle: saline): 230 % of control and 213 % of control
- T/C [5]: 254 % of control
- T/C [10]: 250 % of control

SMILES: CCCCCCCCCC(=O)CCC
- T/C (dose: 100.0 mg/kg/injection, schedule: Q04DX003 (ip), vehicle: saline): 100 % of control
- T/C [9]: 100 % of control
- T/C [10]: 104 % of control

SMILES: O=CNNS(=O)(=O)/C=C/c1ccccc1
- T/C (dose: 12.5 mg/kg/injection, schedule: Q01DX009 (ip), vehicle: distilled water + Tween-80): 106 % of control
- T/C (dose: 25.0 mg/kg/injection, schedule: Q01DX009 (ip), vehicle: distilled water + Tween-80): 105 % of control
- T/C (dose: 50.0 mg/kg/injection, schedule: Q01DX009 (ip), vehicle: distilled water + Tween-80): 102 % of control
- T/C (dose: 100.0 mg/kg/injection, schedule: Q01DX009 (ip), vehicle: distilled water + Tween-80): 89 % of control
- T/C (dose: 200.0 mg/kg/injection, schedule: Q01DX009 (ip), vehicle: distilled water + Tween-80): 89 % of control

SMILES: NC(CCC(=O)c1ccccn1)C(=O)O (stereo unspecified)
- T/C [8]: 103 % of control
- T/C (dose: 25.0 mg/kg/injection, schedule: Q01DX009 (ip), vehicle: saline): 117 % of control
- T/C (dose: 50.0 mg/kg/injection, schedule: Q01DX009 (ip), vehicle: saline): 98 % of control
- T/C (dose: 100.0 mg/kg/injection, schedule: Q01DX009 (ip), vehicle: saline): 117 % of control
